Assays:
[1] = system: Paracoccus alcaliphilus JCM7364R; experiment: Sodium arsenite growth inhibition; assay type: cell-based; conditions: P. alcaliphilus JCM7364R
[2] = system: Paracoccus aminophilus JCM7686; experiment: As(III) (sodium arsenite) growth inhibition / MIC; assay type: cell-based
Method: (§1) FIG. 8. […] In order to compare the MICs for As(III), cultures were carried out in LB medium, with various concentrations of sodium arsenite (up to 20 mM). After 48 h of cultivation at 30° C., optical density of the cultures (OD600nm measurements of absorbance at 600 nm) was monitored.
(§2) In all the conjugations, transconjugants harbouring the plasmid pARS1 were obtained. To confirm that the newly constructed strains, harbouring the plasmid pARS1, have an increased resistance to arsenic, analysis of MIC—minimal concentration of As(III), inhibiting the growth of the following strains: Agrobacterium tumefaciens ARS3 (derivative of A. tumefaciens LBA288 harbouring the plasmid pARS1), Brevundimonas sp. ARS4 (derivative of Brevundimonas sp. sp. OS24R harbouring the plasmid pARS1), P. aminophilus ARS5 (derivative of P. aminophilus JCM7686 harbouring the plasmid pARS1) was carried out. Wild-type strains were used as the control. Growth experiment and MIC analysis for As(III) was carried out in LB medium, with various concentrations of sodium arsenite (up to 20 mM). After 48 h of cultivation at 30° C., optical density of cultures at OD600nm was monitored. […] MIC for As(III) for A. tumefaciens LBA288 strain was 1 mM, while for its derivative, comprising the plasmid pARS1, 20 mM; for P. aminophilus JCM7686R strain 5 mM, while for its derivative, containing the plasmid pARS1, 20 mM. In turn Brevundimonas sp. OS24R could tolerate the maximum of 10 mM of As(III), and its derivative harbouring the plasmid pARS1 was resistant to 20 mM of As(III). The conducted analyses allowed to confirm that the derivative of the plasmid pSinA, comprising the ars module (sequence from 43229 to 50772) can be used for constructing strains with increased resistance to arsenic.

Brevundimonas sp. OS24R = experiment: As(III) (sodium arsenite) growth inhibition / MIC; assay type: cell-based
Method: as §1, §2

[3] = system: Agrobacterium tumefaciens LBA288; experiment: As(III) (sodium arsenite) growth inhibition / MIC; assay type: cell-based
Method: as §1, §2

[4] = system: Paracoccus aminovorans JCM7685; experiment: Sodium arsenite growth inhibition; assay type: cell-based; conditions: P. aminovorans JCM7685
Pseudomonas sp. OS29R = experiment: Resistance to As(III); assay type: cell-based; conditions: in words
A. tumefaciens D10 = experiment: Resistance to As(III); assay type: cell-based, Agrobacterium tumefaciens; conditions: A. tumefaciens D10 with pSinA
Sinorhizobium sp. M14 = experiment: Resistance to As(III); assay type: cell-based
[5] = system: Stenotrophomonas sp. LM24R; experiment: Sodium arsenite growth inhibition; assay type: cell-based
[6] = system: Agrobacterium tumefaciens ARS3 (derivative of A. tumefaciens LBA288 harbouring the plasmid pARS1); experiment: MIC for As(III); assay type: cell-based; conditions: derivative with pARS1, LB medium, 48 h, 30° C.
Method: as §1, §2

[7] = system: Brevundimonas sp. ARS4 (derivative of Brevundimonas sp. OS24R harbouring the plasmid pARS1); experiment: MIC for As(III); assay type: cell-based; conditions: derivative with pARS1; LB medium, 48 h, 30° C.
Method: as §1, §2

[8] = system: P. aminophilus ARS5 (derivative of P. aminophilus JCM7686 harbouring the plasmid pARS1); experiment: MIC for As(III); assay type: cell-based; conditions: Paracoccus aminophilus, derivative with pARS1, LB medium, 48 h, 30° C.
Method: as §1, §2

## O=[As]O [sodium arsenite]
[1]
  concentration of sodium arsenite that inhibits growth: 1 mM
[2]; P. aminophilus JCM7686
  concentration of sodium arsenite that inhibits growth: 5 mM
[2]; Paracoccus aminophilus, JCM7686, 48 h, read-out: MIC for As(III)
  MIC: 5 mM
Brevundimonas sp. OS24R; Brevundimonas sp. OS24R
  concentration of sodium arsenite that inhibits growth: 10 mM
Brevundimonas sp. OS24R; Brevundimonas sp. OS24R, in words
  resistance to As (III): resistant
Brevundimonas sp. OS24R; LB medium, 48 h, 30° C., OD600nm
  maximum of As(III) tolerated: ≤ 10 mM
[3]; A. tumefaciens LBA288
  concentration of sodium arsenite that inhibits growth: 1 mM
[3]; Agrobacterium tumefaciens, LBA288, LB medium, 48 h, 30° C., OD600nm
  MIC: 1 mM
[4]
  concentration of sodium arsenite that inhibits growth: 1 mM
Pseudomonas sp. OS29R
  resistance to As (III): resistant
A. tumefaciens D10
  resistant to As (III) (up to): up to 15 mM
Sinorhizobium sp. M14
  resistant to As (III) (up to): up to 20 mM
[5]
  concentration of sodium arsenite that inhibits growth: 1 mM
[6]
  MIC: 20 mM
[7]
  As(III) concentration the strain is resistant to: 20 mM
[8]
  MIC: 20 mM

— patent publication US9243255B2, “Bacterial strains, plasmids, method of producing bacterial strains capable of chemolithotrophic arsenites oxidation and uses thereof” (UNIWERSYTET WARSZAWSKI, priority 2012, dated 2016)
